# From patent publication US9895363B2, “Methods for modulating function of proliferating cell nuclear antigen (PCNA) and treating cancer with PCNA-targeting compounds” (University of Cincinnati, priority 2010, dated 2018)
# Where two headings read alike, the source gives them in different places.
# Assays:
# [1] = tested on: MCF-7 breast cancer cells; experiment: Growth inhibition by MTT staining, MCF-7; assay type: cell-based; details: MCF7, 96 h, Human, tumor cells, treated four days
# Experimental: (§1) Growth inhibitory effects of PCNA-I1 and PCNA-I2 were assessed in human cancer cell lines, mouse cancer cell lines, immortalized mouse cell lines, and human primary cell lines. Specifically, growth inhibitory effects of PCNA-I1 and PCNA-I2 were assessed using MTT staining in the following cells lines: 1) human cancer cell lines including LNCaP (androgen receptor […]), 22Rv1, DU-145, LAPC-4, and PC-3 (androgen receptor […]) prostate cancer cells; MCF-7 and T47D breast cancer cells; A375 and MDA-MB435 melanoma cells; 2) mouse cancer cell lines including TRAMP-C2RE3 prostate cancer cells, B16 and K1735 melanoma cells, UV2237 fibrosarcoma cells, and CT-26 colon cancer cells; 3) immortalized mouse lung cell lines and mouse endothelial cell lines; and 4) primary human cell lines including umbilical endothelial cells (HUVEC, PromoCell, Heidelberg, Germany), primary bone marrow mesenchymal stem cells (HuMSC, PromoCell), primary human mammary epithelial cells (HuBrEC, Lonza, Walkersville, Md.), primary human prostate epithelial cells (HuPrEC, Lonza), and primary mouse spleen lymphocytes (isolated in this laboratory), and primary mouse bone marrow stromal cells (isolated in this laboratory). […]
# (§2) IC50 values were derived from growth inhibition curves. […] Inhibition of cell growth was calculated using the formula: growth inhibition (%)=(1−A570 of treated/A570 of control)×100. […]
# [2] = tested on: T47D breast cancer cells; experiment: Growth inhibition by MTT staining, T47D; assay type: cell-based; details: 96 h, Human tumor cells, treated four days
# Experimental: as §1, §2
# [3] = tested on: PC-3 prostate cancer cells; experiment: Growth inhibition by MTT staining, PC-3; assay type: cell-based, Human
# Experimental: (§3) Growth inhibitory effects of PCNA-I1 and PCNA-I2 were assessed in human cancer cell lines, mouse cancer cell lines, immortalized mouse cell lines, and human primary cell lines. Specifically, growth inhibitory effects of PCNA-I1 and PCNA-I2 were assessed using MTT staining in the following cells lines: 1) human cancer cell lines including LNCaP (androgen receptor […]), 22Rv1, DU-145, LAPC-4, and PC-3 (androgen receptor […]) prostate cancer cells; MCF-7 and T47D breast cancer cells; A375 and MDA-MB435 melanoma cells; 2) mouse cancer cell lines including TRAMP-C2RE3 prostate cancer cells, B16 and K1735 melanoma cells, UV2237 fibrosarcoma cells, and CT-26 colon cancer cells; 3) immortalized mouse lung cell lines and mouse endothelial cell lines; and 4) primary human cell lines including umbilical endothelial cells (HUVEC, PromoCell, Heidelberg, Germany), primary bone marrow mesenchymal stem cells (HuMSC, PromoCell), primary human mammary epithelial cells (HuBrEC, Lonza, Walkersville, Md.), primary human prostate epithelial cells (HuPrEC, Lonza), and primary mouse spleen lymphocytes (isolated in this laboratory), and primary mouse bone marrow stromal cells (isolated in this laboratory). PCNA-I1 and PCNA-I2 were either provided by the University of Cincinnati Drug Discovery Center (UC-DDC, Cincinnati, Ohio) or were purchased from Chembridge Co (San Diego, Calif.), ChemDiv (San Diego, Calif.), and/or Sigma-Aldrich (St Louis, Mo.).
# Growth inhibitory effects of the compounds were assessed by MTT staining as described previously by Dong et al. in In Vitro Model for Intrinsic Drug Resistance: Effects of Protein Kinase C Activators on the Chemosensitivity of Cultured Human Colon Cancer Cells; Mol. Pharmacol. 1991; 39: 563-9. Briefly, cells were cultured and treated in their respective media. Cells were plated into 96-well plates at 1000 to 5000 cells/well. After an overnight incubation, the cells were treated for four days with various concentrations (up to 10 μM) of PCNA-I1 or PCNA-I2. The live cells were stained with MTT and cells in exponential growth phase were harvested by a one to three minute treatment with a 0.25% trypsin-0.02% EDTA solution. Flasks were tapped to detach the cells, RPMI 1640-10% FBS was added, and the cell suspensions were gently agitated to produce single-cell suspensions. The cell suspensions were washed and resuspended in medium with supplements specified for different cells. Only suspensions of single cells with a viability exceeding 95% (ascertained by trypan blue exclusion) were used.
# IC50 values were derived from growth inhibition curves. Data for tumor cells are a mean of five to seven experiments. Data for primary cells are a mean of three experiments. […] Inhibition of cell growth was calculated using the formula: growth inhibition (%)=(1−A570 of treated/A570 of control)×100. IC50 (the concentration that inhibited cell growth by 50%) values were also determined. For evaluation of lymphocyte growth in suspension, an Alamar blue assay was performed, wherein freshly prepared mouse spleen lymphocytes were stimulated for 72 H with 2 ug/mL concanavalin A (Sigma Chemicals, St. Louis, […].). During the last 24 H, 20 μl/well of Alamar blue (Invitrogen, Carlsbad, Calif.) was added. The fluorescence intensity was measured at 530/580 (excitation/emission) in the FLUOstar Omega microplate reader (BMG LABTECH, Cary, N.C.).
# Growth inhibitory effects of PCNA-I3, PCNA-I4, PCNA-I6, PCNA-I7, PCNA-I8, PCNA-I9 and PCNA-I10 were assessed in human prostate cancer cell lines. Specifically, growth inhibitory effects of PCNA-I3, PCNA-I4, PCNA-I6, PCNA-I7, PCNA-I8, PCNA-I9 and PCNA-I10 were assessed using MTT staining in LNCaP and PC-3 cells. […]
# [4] = tested on: A375 melanoma cells; experiment: Growth inhibition by MTT staining, A375; assay type: cell-based; details: A-375, 96 h, Human, treated four days
# Experimental: as §1, §2
# [5] = tested on: HUVEC (primary human umbilical endothelial cells); experiment: Growth inhibition, HUVEC; assay type: cell-based; details: for IC50: HUVEC
# Experimental: as §3
# Growth inhibitory effects of the compounds were assessed by MTT staining as described previously by Dong et al. in In Vitro Model for Intrinsic Drug Resistance: Effects of Protein Kinase C Activators on the Chemosensitivity of Cultured Human Colon Cancer Cells; Mol. Pharmacol. 1991; 39: 563-9. […]
# IC50 values were derived from growth inhibition curves. […] Inhibition of cell growth was calculated using the formula: growth inhibition (%)=(1−A570 of treated/A570 of control)×100. […] The fluorescence intensity was measured at 530/580 (excitation/emission) in the FLUOstar Omega microplate reader (BMG LABTECH, Cary, N.C.). […]
# [6] = tested on: PC-3 cells; experiment: Alamar blue assay, PC-3 cells as positive control; assay type: cell-based, Human; details: FIG. 2(B)
# Experimental: The effects of PCNA-I1 on growth of tumor cells versus primary cells was also investigated. Specifically, the effects of PCNA-1I on the growth of primary cells was investigated using primary culture of mouse lymphocytes. An Alamar blue assay was performed with PC-3 cells as a positive control. Freshly prepared mouse spleen lymphocytes were stimulated for 72 H with 2 μg/mL of concanavalin A. During the last 24 H, 20 μL/well of alamar blue was added. The fluorescence intensity was measured at 530/580 (excitation/emission).
# [7] = target: T1, PCNA (Homo sapiens, UniProt P12004); experiment: PCNA trimer formation assay, PC-3 cell lysate; assay type: biochemical; details: PC-3 lysate, 1 μM or 10 μM, 3 H, SDS-PAGE; FIG. 9(A)
# T1 construct: endogenous PCNA was knocked down with transfection of PCNA-specific siRNA; endogenous in cells; host or cells: PC-3
# T1 sequence (P12004 whole entry): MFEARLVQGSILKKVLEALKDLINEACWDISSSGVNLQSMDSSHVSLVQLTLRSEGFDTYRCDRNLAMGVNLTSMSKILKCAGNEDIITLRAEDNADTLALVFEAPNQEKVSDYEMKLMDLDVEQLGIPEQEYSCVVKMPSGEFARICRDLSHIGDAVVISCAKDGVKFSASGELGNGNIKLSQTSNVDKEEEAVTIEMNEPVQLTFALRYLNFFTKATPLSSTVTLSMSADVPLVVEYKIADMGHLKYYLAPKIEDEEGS
# Experimental: The effect of PCNA-I1, PCNA-I2, PCNA-I3, PCNA-I4, PCNA-I6, PCNA-I7, PCNA-I8, PCNA-I9, and PCNA-I10 on PCNA trimer formation was investigated by SDS-PAGE and immunoblotting. Specifically, a trimer formation assay was performed on both PC-3 cell lysates and purified recombinant protein. The trimer formation assay was performed on purified recombinant protein to determine whether the effects of PCNA compounds on the stable trimer formation required the participation of other cellular proteins.
# Purified His-PCNA (0.1 μg/reaction) and PC-3 cell lysates (50 μg/reaction) were incubated for 3 H at room temperature in a reaction buffer (40 mM Tris-HCl, pH 7.5, 0.2 mg/mL BSA, 10 mM MgCl2, and 10% glycerol) in the absence or presence of DMSO (0.1% vehicle control) or PCNA-I1, PCNA-I2, PCNA-I3, PCNA-I4, PCNA-I6, PCNA-I7, PCNA-I8, PCNA-I9, or PCNA-I10 (1 μM or 10 μM). The reaction was stopped by addition of the SDS-PAGE sample buffer without a reducing agent. The samples were resolved in SDS-PAGE without boiling and analyzed by immunoblotting using PCNA antibody.
smiles,measurement,setting,value
Cc1ccsc1C(=O)N/N=C/c1ccc2ccccc2c1O [PCNA-I1],IC50,[1],150 nM
same,IC50,[2],150 nM
same,IC50,"[3]; 96 h, Table II, Human tumor cells, MTT, treated four days, mean of five to seven experiments, read-out: IC50 Values, PC-3",240 nM
same,IC50,"[3]; Homo sapiens, FIG. 2(C), read-out: IC50, PC-3",250 nM
same,IC50,[4],290 nM
same,"Growth stimulation, HUVEC",[5]; FIG. 2(C),Moderate growth stimulation
same,IC50,"[5]; Human, Blood Vessel, normal cells, mean of three experiments, read-out: IC50 Values, HUVEC",1540 nM
same,IC50,"[5]; Homo sapiens, FIG. 2(C), read-out: IC50, HUVEC",1540 nM
same,Susceptibility of PC-3 cells relative to lymphocytes,[6],approximately three times more susceptible than lymphocytes
same,IC50,"[6]; Homo sapiens, PC-3, Alamar blue assay",482 nM
same,Portion of PCNA in the trimer form,[7],significantly elevated
